From article PMC11347161, “Sequence diversity of apidaecin-like peptides arresting the terminating ribosome” (Nucleic Acids Research, 2024)
Converted amounts (≈) assume the structure as drawn. Residues, ends and D or L forms follow the SMILES beside them. No end group written: not given here. *: point of attachment. Orn(α-tetramethylguanidino) = CN(C)C(=N[C@@H](CCCN)C(=O)*)N(C)C

Test system: E. coli, BL21 cells
Assay type: cell-based
Conditions: for MIC, TSB / MIC, LB / MIC, RPMI/Serum: E. coli BL21, broth microdilution, conducted in triplicate; for MIC, TSB: 33% TSB medium; for MIC, LB: LB medium; for MIC, RPMI/Serum: RPMI/Serum medium (RPMI-1640:MHB:FBS = 100:5:20)
Method: The E. coli strain CA244 (lacZ125(Am), e14-, trpA49(Am), relA1, spoT1) was obtained from Escherichia coli Genetic Stock Center. The E. coli BL21(DE3) electrocompetent cells were from Sigma. The following media and components were implemented for bacteria growth: lysogeny broth (LB), minimal M9 medium, Tryptic Soy Broth (TSB), Roswell Park Memorial Institute medium 1640 (RPMI-1640), Mueller Hinton Broth (MHB), Fetal Bovine Serum (FBS). For various experiments E. coli cells were grown either in LB, in 33% TSB ([21]), in M9 medium supplemented with 1% Glycerol, 1 mM MgSO4, 0.1 mM CaCl2 and 10 μg/ml thiamine, or in RPMI/Serum (RPMI-1640:MHB:FBS = 100:5:20) ([23]).
The minimal inhibitory concentration (MIC) test was performed using the broth microdilution method, adapted from the previously described procedure ([28]). The MIC tests were conducted in triplicate either in LB, 33% TSB or RPMI/Serum media.
In order to quantitatively assess the antimicrobial activity of the synthesized peptides identified by both, the negative and positive selection strategies, we determined their minimal inhibitory concentrations (MICs) for the E. coli BL21 cells in three different media: LB, as a standard laboratory medium, 33% TSB, as a medium in which PrAMPs show increased antibacterial properties ([21]), and in the more therapeutically relevant RPMI/serum media ([23]) (Table 1). […] It appears, therefore, that the positive selection strategy is more prone to identifying biologically active peptides in comparison with the negative selection approaches. Furthermore, it became apparent that some multiple substitutions can even improve the antibacterial properties of the Api-like peptides.

Molecule: SVMRPVYKPQPRPPHPRL [Peptide S1V2M3K8]
- MIC, TSB: 0.5 µM
- MIC, LB: 16 µM
- MIC, RPMI/Serum: 4 µM

Molecule: GNNRPVYAYQPRPPHPRT [Peptide A8Y9T18]
- MIC, TSB: 4 µM
- MIC, LB: 32 µM
- MIC, RPMI/Serum: 8 µM

Molecule: CC[C@H](C)[C@H](NC(=O)[C@H](Cc1ccc(O)cc1)NC(=O)[C@@H](NC(=O)[C@@H]1CCCN1C(=O)[C@H](CCCNC(=N)N)NC(=O)[C@H](CC(N)=O)NC(=O)[C@H](CCCCN)NC(=O)[C@H](CCCN)N=C(N(C)C)N(C)C)C(C)C)C(=O)N[C@@H](CC(N)=O)C(=O)N[C@@H](CCC(N)=O)C(=O)N1CCC[C@H]1C(=O)N[C@@H](CCCNC(=N)N)C(=O)N[C@@H](CCC(=O)O)C(=O)N1CCC[C@H]1C(=O)N[C@@H](Cc1c[nH]cn1)C(=O)N1CCC[C@H]1C(=O)N[C@@H](CCCNC(=N)N)C(=O)N[C@@H](CC(C)C)C(=O)O [Peptide K2N9E13] ({Orn(α-tetramethylguanidino)}-KNRPVYINQPREPHPRL-OH; C-terminus assumed)
- MIC, TSB: >64 µM
- MIC, LB: >64 µM
- MIC, RPMI/Serum: >64 µM

Molecule: GNNRPVYIPKPPTPHPRL [Peptide K10P12T13]
- MIC, TSB: 1 µM
- MIC, LB: 64 µM
- MIC, RPMI/Serum: 8 µM

Molecule: GNNRPVECPQPRPRVPRL [Peptide E7C8R14V15]
- MIC, TSB: >64 µM
- MIC, LB: >64 µM
- MIC, RPMI/Serum: >64 µM

Molecule: CC[C@H](C)[C@H](NC(=O)[C@H](Cc1ccc(O)cc1)NC(=O)[C@@H](NC(=O)[C@@H]1CCCN1C(=O)[C@H](CCCNC(=N)N)NC(=O)[C@H](CC(N)=O)NC(=O)[C@H](CC(N)=O)NC(=O)[C@H](CCCN)N=C(N(C)C)N(C)C)C(C)C)C(=O)N1CCC[C@H]1C(=O)N[C@@H](CCCNC(=N)N)C(=O)N1CCC[C@H]1C(=O)N[C@@H](CCCNC(=N)N)C(=O)N1CCC[C@H]1C(=O)N1CCC[C@H]1C(=O)N[C@@H](Cc1c[nH]cn1)C(=O)N1CCC[C@H]1C(=O)N[C@@H](CCCNC(=N)N)C(=O)N[C@@H](CC(C)C)C(=O)O [Api 137, reference compound] ({Orn(α-tetramethylguanidino)}-NNRPVYIPRPRPPHPRL-OH; N-terminus and C-terminus assumed)
- MIC, TSB: 0.25 µM (≈ 0.573 µg/mL)
- MIC, LB: 4 µM (≈ 9.17 µg/mL)
- MIC, RPMI/Serum: 0.0625 µM (≈ 0.143 µg/mL)

Molecule: CC(C)C[C@H](NC(=O)[C@H](CCCNC(=N)N)NC(=O)[C@@H]1CCCN1C(=O)[C@H](Cc1c[nH]cn1)NC(=O)[C@@H]1CCCN1C(=O)[C@H](CO)NC(=O)[C@H](CCCNC(=N)N)NC(=O)[C@@H]1CCCN1C(=O)[C@@H](NC(=O)[C@H](CC(N)=O)NC(=O)[C@H](Cc1ccc(O)cc1)NC(=O)[C@H](Cc1ccc(O)cc1)NC(=O)[C@@H](NC(=O)[C@@H]1CCCN1C(=O)[C@H](CCCNC(=N)N)NC(=O)[C@H](CCCCN)NC(=O)[C@H](CC(N)=O)NC(=O)[C@H](CCCN)N=C(N(C)C)N(C)C)C(C)C)[C@@H](C)O)C(=O)O [Peptide K3Y8N9T10S13] ({Orn(α-tetramethylguanidino)}-NKRPVYYNTPRSPHPRL-OH; C-terminus assumed)
- MIC, TSB: >64 µM
- MIC, LB: >64 µM
- MIC, RPMI/Serum: >64 µM

Molecule: CC[C@H](C)[C@H](NC(=O)[C@H](Cc1ccc(O)cc1)NC(=O)[C@@H](NC(=O)[C@H](CCCNC(=N)N)NC(=O)[C@H](CCCNC(=N)N)NC(=O)[C@H](CC(N)=O)NC(=O)[C@H](CC(N)=O)NC(=O)[C@H](CCCN)N=C(N(C)C)N(C)C)C(C)C)C(=O)N1CCC[C@H]1C(=O)N[C@@H](CCC(N)=O)C(=O)N1CCC[C@H]1C(=O)N[C@@H](CCCNC(=N)N)C(=O)N[C@@H](CC(N)=O)C(=O)N1CCC[C@H]1C(=O)N[C@@H](Cc1c[nH]cn1)C(=O)N[C@@H](CC(C)C)C(=O)N[C@@H](CCCNC(=N)N)C(=O)N[C@@H](CC(C)C)C(=O)O [Peptide R5N13L16] ({Orn(α-tetramethylguanidino)}-NNRRVYIPQPRNPHLRL-OH; C-terminus assumed)
- MIC, TSB: >64 µM
- MIC, LB: >64 µM
- MIC, RPMI/Serum: >64 µM

Molecule: CSCC[C@H](NC(=O)[C@H](CCCNC(=N)N)NC(=O)[C@@H]1CCCN1C(=O)[C@H](Cc1ccc(O)cc1)NC(=O)[C@@H]1CCCN1C(=O)[C@H](Cc1ccccc1)NC(=O)[C@H](Cc1ccc(O)cc1)NC(=O)[C@@H](NC(=O)[C@@H]1CCCN1C(=O)[C@H](CCCNC(=N)N)NC(=O)[C@H](C)NC(=O)[C@H](CC(N)=O)NC(=O)[C@H](CCCN)N=C(N(C)C)N(C)C)C(C)C)C(=O)N1CCC[C@H]1C(=O)N[C@@H](Cc1c[nH]cn1)C(=O)N1CCC[C@H]1C(=O)N[C@@H](CCCNC(=N)N)C(=O)N[C@@H](CC(C)C)C(=O)O [Peptide A3F8Y10M13] ({Orn(α-tetramethylguanidino)}-NARPVYFPYPRMPHPRL-OH; C-terminus assumed)
- MIC, TSB: 16 µM (≈ 37.2 µg/mL)
- MIC, LB: >64 µM
- MIC, RPMI/Serum: 8 µM (≈ 18.6 µg/mL)

Molecule: CC[C@H](C)[C@H](NC(=O)[C@H](Cc1ccc(O)cc1)NC(=O)[C@H](CCSC)NC(=O)[C@@H]1CCCN1C(=O)[C@H](CCCNC(=N)N)NC(=O)[C@H](CC(N)=O)NC(=O)[C@H](CC(N)=O)NC(=O)[C@H](CCCN)N=C(N(C)C)N(C)C)C(=O)N[C@@H](C)C(=O)N[C@@H](CCC(N)=O)C(=O)N1CCC[C@H]1C(=O)N[C@@H](CCCNC(=N)N)C(=O)N1CCC[C@H]1C(=O)N[C@@H](Cc1ccc(O)cc1)C(=O)N[C@@H](Cc1c[nH]cn1)C(=O)N1CCC[C@H]1C(=O)N[C@@H](CCCNC(=N)N)C(=O)N[C@@H](CC(C)C)C(=O)O [Peptide M6A9Y14] ({Orn(α-tetramethylguanidino)}-NNRPMYIAQPRPYHPRL-OH; C-terminus assumed)
- MIC, TSB: 16 µM (≈ 37.4 µg/mL)
- MIC, LB: >64 µM
- MIC, RPMI/Serum: 16 µM (≈ 37.4 µg/mL)

Molecule: CC[C@H](C)[C@H](NC(=O)[C@H](Cc1ccc(O)cc1)NC(=O)[C@@H](NC(=O)[C@@H]1CCCN1C(=O)[C@H](CCCNC(=N)N)NC(=O)[C@H](CC(N)=O)NC(=O)[C@H](CC(N)=O)NC(=O)[C@H](CCCN)N=C(N(C)C)N(C)C)C(C)C)C(=O)NCC(=O)N[C@@H](CCC(=O)O)C(=O)N1CCC[C@H]1C(=O)N[C@@H](CCCNC(=N)N)C(=O)N1CCC[C@H]1C(=O)N1CCC[C@H]1C(=O)N[C@@H](CC(N)=O)C(=O)N1CCC[C@H]1C(=O)N[C@@H](CCCNC(=N)N)C(=O)N[C@@H](CC(C)C)C(=O)O [Peptide G9E10N15] ({Orn(α-tetramethylguanidino)}-NNRPVYIGEPRPPNPRL-OH; C-terminus assumed)
- MIC, TSB: >64 µM
- MIC, LB: >64 µM
- MIC, RPMI/Serum: >64 µM

Molecule: CC[C@H](C)[C@H](NC(=O)[C@H](Cc1ccc(O)cc1)NC(=O)[C@@H](NC(=O)[C@H](CCCNC(=N)N)NC(=O)[C@H](CCCNC(=N)N)NC(=O)[C@H](CC(N)=O)NC(=O)[C@H](CC(N)=O)NC(=O)[C@H](CCCN)N=C(N(C)C)N(C)C)C(C)C)C(=O)N1CCC[C@H]1C(=O)N[C@@H](CC(N)=O)C(=O)N1CCC[C@H]1C(=O)N[C@@H](CCCNC(=N)N)C(=O)N1CCC[C@H]1C(=O)N1CCC[C@H]1C(=O)N[C@@H](Cc1c[nH]cn1)C(=O)N1CCC[C@H]1C(=O)N[C@@H](CCCNC(=N)N)C(=O)N[C@@H](CC(C)C)C(=O)O [Peptide R5N10] ({Orn(α-tetramethylguanidino)}-NNRRVYIPNPRPPHPRL-OH; C-terminus assumed)
- MIC values relative to wt Api (E. coli BL21, peptides from depletion selection): comparable to those of wt Api
- MIC, TSB: 8 µM (≈ 18.5 µg/mL)
- MIC, LB: 32 µM (≈ 73.9 µg/mL)
- MIC, RPMI/Serum: 1 µM (≈ 2.31 µg/mL)

Molecule: CC(C)C[C@H](NC(=O)[C@H](CCCNC(=N)N)NC(=O)[C@H](CC(C)C)NC(=O)[C@H](Cc1c[nH]cn1)NC(=O)[C@@H]1CCCN1C(=O)CNC(=O)[C@H](CC(C)C)NC(=O)[C@@H]1CCCN1C(=O)[C@H](CCC(N)=O)NC(=O)[C@@H]1CCCN1C(=O)[C@H](CC(C)C)NC(=O)[C@H](Cc1ccc(O)cc1)NC(=O)[C@@H](NC(=O)[C@@H]1CCCN1C(=O)[C@H](CCCNC(=N)N)NC(=O)[C@H](CC(N)=O)NC(=O)[C@H](CC(N)=O)NC(=O)[C@H](CCCN)N=C(N(C)C)N(C)C)C(C)C)C(=O)O [Peptide L8L12G13L16] ({Orn(α-tetramethylguanidino)}-NNRPVYLPQPLGPHLRL-OH; C-terminus assumed)
- MIC, TSB: >64 µM
- MIC, LB: >64 µM
- MIC, RPMI/Serum: >64 µM

Molecule: GNNRPVCAPQPAWPTGRL [C7A8A12W13T15G16]
- MIC, TSB: >64 µM
- MIC, LB: >64 µM
- MIC, RPMI/Serum: >64 µM

Molecule: GRNRPVYIPKPRPPHPRL [Peptide R2K10]
- MIC, TSB: 0.25 µM
- MIC, LB: 2 µM
- MIC, RPMI/Serum: 0.5 µM

Molecule: GNNRPGYDRQPRPPHPRL [Peptide G6D8R9]
- MIC, TSB: 8 µM
- MIC, LB: 16 µM
- MIC, RPMI/Serum: 4 µM
